Activity calls are given as the source filed them. No cut-off for these calls is given here.
Columns and labels:
SM1 [1] = test: Potentiation of antitumor immune response in C57BL/6 mouse harboring mouse SM1 cells assessed as decrease in tumor burden at 25 mg/kg, ip dosed 5 days per week before starting 15 mg/kg, ip anti-PD1 immune checkpoint blockade therapy measured on day 14; type: functional, organism-based; settings: time 14.0 day
[2] = biological target: T1, Protein deacetylase HDAC6 (Homo sapiens) (UniProt Q9UBN7); test: Inhibition of human HDAC6 in human WM164 cells assessed as decrease in STAT3 Y705 phosphorylation at 5 uM pre-incubated before IL6 stimulation for 20 mins by immunoblot analysis; type: cell-based
T1 sequence (whole entry): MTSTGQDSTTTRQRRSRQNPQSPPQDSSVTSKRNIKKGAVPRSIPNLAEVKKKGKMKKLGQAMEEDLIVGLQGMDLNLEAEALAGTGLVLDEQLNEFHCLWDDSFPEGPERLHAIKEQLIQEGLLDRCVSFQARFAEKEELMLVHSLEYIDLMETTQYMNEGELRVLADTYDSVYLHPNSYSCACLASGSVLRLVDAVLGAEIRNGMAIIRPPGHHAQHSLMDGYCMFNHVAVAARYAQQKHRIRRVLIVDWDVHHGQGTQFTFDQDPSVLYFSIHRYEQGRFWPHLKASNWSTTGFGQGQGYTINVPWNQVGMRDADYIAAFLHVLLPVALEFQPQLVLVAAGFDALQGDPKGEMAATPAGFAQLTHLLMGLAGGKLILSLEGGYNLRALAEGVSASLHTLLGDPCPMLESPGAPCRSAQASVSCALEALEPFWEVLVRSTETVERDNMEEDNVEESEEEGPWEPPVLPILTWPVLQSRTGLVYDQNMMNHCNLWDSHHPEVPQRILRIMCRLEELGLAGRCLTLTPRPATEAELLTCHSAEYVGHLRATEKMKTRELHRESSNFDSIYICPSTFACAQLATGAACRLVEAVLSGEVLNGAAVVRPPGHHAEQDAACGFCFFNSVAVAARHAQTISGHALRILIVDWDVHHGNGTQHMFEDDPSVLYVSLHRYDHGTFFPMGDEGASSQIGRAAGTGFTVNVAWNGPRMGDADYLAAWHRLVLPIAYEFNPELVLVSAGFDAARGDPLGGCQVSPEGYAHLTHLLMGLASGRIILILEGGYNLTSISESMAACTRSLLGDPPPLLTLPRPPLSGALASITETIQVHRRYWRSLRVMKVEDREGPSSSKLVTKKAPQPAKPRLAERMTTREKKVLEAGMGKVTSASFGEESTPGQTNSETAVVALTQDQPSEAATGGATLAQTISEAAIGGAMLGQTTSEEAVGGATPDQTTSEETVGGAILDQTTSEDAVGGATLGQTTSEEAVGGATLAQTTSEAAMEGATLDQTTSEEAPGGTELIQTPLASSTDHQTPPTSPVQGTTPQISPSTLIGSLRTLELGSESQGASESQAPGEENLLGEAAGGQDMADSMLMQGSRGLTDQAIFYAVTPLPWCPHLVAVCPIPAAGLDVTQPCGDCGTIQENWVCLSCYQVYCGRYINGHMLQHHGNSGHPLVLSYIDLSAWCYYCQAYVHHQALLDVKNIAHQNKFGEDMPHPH

SM1 [3] = test: Cytotoxicity in mouse SM1 cells assessed as reduction in cell viability up to 25 uM; type: functional, cell-based; settings: dose microM <=25
[4] = Protein binding in human plasma at 10 uM incubated for 1 hr by LC-MS/MS analysis; type: ADME, cell-free; settings: read-out: PPB (converted)
Mus musculus [5] = test: Immunomodulatory activity in C57BL/6 mouse harboring mouse SM1 cells assessed as effect on number of F4/80+ CD80+ H2+ antitumor M1 macrophages at 25 mg/kg, ip dosed 5 days per week before starting 15 mg/kg, ip anti-PD1 immune checkpoint blockade therapy by flow cytometry; type: functional, organism-based; settings: time 5.0 day/week
[6] = biological target: T1, Protein deacetylase HDAC6 (Homo sapiens); test: Inhibition of human HDAC6 in human WM164 cells increase in acetylated alpha-tubulin levels at 0.1 to 10 uM by immunoblot analysis; type: cell-based; settings: dose microM 0.1-10
Mus musculus [7] = test: Immunomodulatory activity in C57BL/6 mouse harboring mouse SM1 cells assessed as reduction in F4/80+ CD206+ pro-tumor M2 macrophages at 25 mg/kg, ip dosed 5 days per week before starting 15 mg/kg, ip anti-PD1 immune checkpoint blockade therapy by flow cytometry; type: functional, organism-based; settings: time 5.0 day/week
Mus musculus [8] = test: Immunomodulatory activity in C57BL/6 mouse harboring mouse SM1 cells assessed as increase in CD8+ effector T-cells and effector memory cells at 25 mg/kg, ip dosed 5 days per week by flow cytometry; type: functional, organism-based; settings: time 5.0 day/week
Mus musculus [9] = test: Immunomodulatory activity in C57BL/6 mouse harboring mouse SM1 cells assessed as increase in natural killer cells at 25 mg/kg, ip dosed 5 days per week before by flow cytometry; type: functional, organism-based; settings: time 5.0 day/week
Mus musculus [10] = test: Immunomodulatory activity in C57BL/6 mouse harboring mouse SM1 cells assessed as effect on CD4+ T cells at 25 mg/kg, ip dosed 5 days per week before starting 15 mg/kg, ip anti-PD1 immune checkpoint blockade therapy by flow cytometry; type: functional, organism-based; settings: time 5.0 day/week
Mus musculus [11] = test: Immunomodulatory activity in C57BL/6 mouse harboring mouse SM1 cells assessed as increase in M1/M2 macrophages ratio at 25 mg/kg, ip dosed 5 days per week by flow cytometry; type: functional, organism-based; settings: time 5.0 day/week
Mus musculus [12] = test: Immunomodulatory activity in C57BL/6 mouse harboring mouse SM1 cells assessed as increase in natural killer cells at 25 mg/kg, ip dosed 5 days per week before starting 15 mg/kg, ip anti-PD1 immune checkpoint blockade therapy by flow cytometry; type: functional, organism-based; settings: time 5.0 day/week
[13] = Half life in human plasma at 10 uM by LC-MS/MS analysis; type: ADME, cell-free
HEK293 [14] = test: Selectivity index, ratio of IC50 for human HDAC3 expressed in HEK293/T17 cells (unknown origin) to human HDAC6 expressed in HEK293/T17 cells; type: cell-based
HEK293 [15] = test: Selectivity index, ratio of IC50 for human HDAC5 expressed in HEK293/T17 cells (unknown origin) to human HDAC6 expressed in HEK293/T17 cells; type: cell-based
HEK293 [16] = test: Selectivity index, ratio of IC50 for human HDAC2 expressed in HEK293/T17 cells (unknown origin) to human HDAC6 expressed in HEK293/T17 cells; type: cell-based
HEK293 [17] = test: Selectivity index, ratio of IC50 for human HDAC6 expressed in HEK293/T17 cells (unknown origin) to human HDAC6 expressed in HEK293/T17 cells; type: cell-based
[18] = Half life in SGF by LC-MS/MS analysis; type: ADME
[19] = Half life in rat liver microsome at 10 uM by LC-MS/MS analysis; type: ADME; settings: liver microsomes
HEK293 [20] = test: Selectivity index, ratio of IC50 for human HDAC4 expressed in HEK293/T17 cells (unknown origin) to human HDAC6 expressed in HEK293/T17 cells; type: cell-based
HEK293 [21] = test: Selectivity index, ratio of IC50 for human HDAC7 expressed in HEK293/T17 cells (unknown origin) to human HDAC6 expressed in HEK293/T17 cells; type: cell-based

In the case of `NCc1ccc(NC(=O)N(CCCCO)Cc2ccc(C(=O)NO)cc2)cc1`, the TGI (SM1 [1]) is reported as “Active”, the inhibition [2] is reported as “Active” and the Activity (SM1 [3]) is reported as “inactive”. The fraction unbound at 1 h, 10 µM [4] was 0.981, the Activity (Mus musculus [5]) was “inactive” and the inhibition [6] was “Dose-dependent effect”. The Activity (Mus musculus [7]) was “Active”, the Activity (Mus musculus [8]) was “Active” and the Activity (Mus musculus [9]) was “Active”. For the same compound, the Activity (Mus musculus [10]) was “inactive”, the Activity (Mus musculus [11]) was “Active” and the Activity (Mus musculus [12]) was “Active”. The half-life at 10 µM [13] was over 5 h, the Ratio IC50 (HEK293 [14]) was 880 and the Ratio IC50 (HEK293 [15]) was 8550. It also gave a Ratio IC50 (HEK293 [16]) of 440, a Ratio IC50 (HEK293 [17]) of 1 and a half-life [18] of over 5 h. It also gave a half-life at 10 µM [19] of 2.95 h, a Ratio IC50 (HEK293 [20]) of 20600 and a Ratio IC50 (HEK293 [21]) of 3680.

— ChEMBL document CHEMBL4725372, “Rational Design of Suprastat: A Novel Selective Histone Deacetylase 6 Inhibitor with the Ability to Potentiate Immunotherapy in Melanoma Models” (J Med Chem, 2020)
